The values that follow come from patent US10660876B2, “Amino compounds for treatment of medical disorders” (Achillion Pharmaceuticals, Inc., priority 2015, dated 2020).

Human Factor D, sequence (P00746 26-253): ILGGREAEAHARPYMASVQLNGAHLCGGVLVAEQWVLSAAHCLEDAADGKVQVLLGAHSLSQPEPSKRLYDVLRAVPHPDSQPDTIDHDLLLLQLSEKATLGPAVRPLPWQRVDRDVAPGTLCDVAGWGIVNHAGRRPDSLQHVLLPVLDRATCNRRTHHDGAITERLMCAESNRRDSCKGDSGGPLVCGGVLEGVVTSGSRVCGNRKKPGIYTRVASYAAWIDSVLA

In the first experiment the target is Human Factor D (Homo sapiens (Human), UniProt P00746). Put plainly: Human Factor D Assay. It counts as biochemical. As to conditions: Table 1; Factor D purified from human serum, 80 nM, substrate Z-L-Lys-SBzl; read-out: IC50. As to the method:
Example 12. Human Factor D Assay
Human Factor D (purified from human serum, Complement Technology, Inc.) at 80 nM final concentration is incubated with test compound at various concentrations for 5 minutes at room temperature in 50 mM Tris, 1M NaCl, pH 7.5. A synthetic substrate Z-L-Lys-SBzl and DTNB (Ellman's reagent) are added to final concentrations of 100 μM each. Absorbance at 405 nm (A405) is recorded at 30 second intervals for 30 minutes using a microplate spectrophotometer. IC50 values are calculated by nonlinear regression of complement Factor D reaction rates as a function of test compound concentration.
In general, IC50 refers to the concentration needed to halve the response being measured. As to `CC(=O)c1cn(CC(=O)N2C[C@H](F)C[C@H]2C(=O)Nc2n[nH]c(C)c2-c2ccccc2)c2ccc(Nc3cncnc3)cc12` [Compound 66, (2S,4R)-1-(2-(3-acetyl-5-(pyrimidin-5-ylamino)-1H-indol-1-yl)acetyl)-4-fluoro-N-(5-methyl-4-phenyl-1H-pyrazol-3-yl)pyrrolidine-2-carboxamide], the IC50 is below 1 µM.
For `CC(=O)c1cn(CC(=O)N2C[C@H](F)C[C@H]2C(=O)Nc2cc(C3CC3C)no2)c2ccc(Nc3cncnc3)cc12` (stereo partly drawn) [Compound 65, (2S,4R)-1-(2-(3-acetyl-5-(pyrimidin-5-ylamino)-1H-indol-1-yl)acetyl)-4-fluoro-N-(3-(2-methylcyclopropyl)isoxazol-5-yl)pyrrolidine-2-carboxamide], the IC50 is below 1 µM.
Turning to `CC(=O)c1cn(CC(=O)N2C[C@H](F)C[C@H]2C(=O)Nc2ccccc2-c2nncn2C)c2ccc(Nc3cncnc3)cc12` [Compound 61, (2S,4R)-1-(2-(3-acetyl-5-(pyrimidin-5-ylamino)-1H-indol-1-yl)acetyl)-4-fluoro-N-(2-(4-methyl-4H-1,2,4-triazol-3-yl)phenyl) pyrrolidine-2-carboxamide], the IC50 was above 10 µM.
In the case of `N#Cc1cnc(Nc2ccc3c(c2)c(C(N)=O)nn3CC(=O)N2C[C@H](F)C[C@H]2C(=O)Nc2cccc(-c3ccccc3Cl)c2F)nc1` [Compound 13, 1-(2-((2S,4R)-2-(2′-chloro-2-fluorobiphenyl-3-ylcarbamoyl)-4-fluoropyrrolidin-1-yl)-2-oxoethyl)-5-(5-cyanopyrimidin-2-ylamino)-1H-indazole-3-carboxamide], the IC50 is below 1 µM.
Regarding `CC(=O)c1cn(CC(=O)N2C[C@H](F)C[C@H]2C(=O)NC2CCCN(c3ccccc3Cl)C2=O)c2ccc(Nc3cncnc3)cc12` (stereo partly drawn) [Compound 58, (2S,4R)-1-(2-(3-acetyl-5-(pyrimidin-5-ylamino)-1H-indol-1-yl)acetyl)-N-(1-(2-chlorophenyl)-2-oxopiperidin-3-yl)-4-fluoropyrrolidine-2-carboxamide], the IC50 was below 1 µM.
Still for that read-out and setting: as for `CC(=O)c1cn(CC(=O)N2C[C@H](F)C[C@H]2C(=O)N[C@H](C)c2oc3ccc(F)cc3c2C)c2ccc(Nc3cncnc3)cc12` [Compound 74, (2S,4R)-1-(2-(3-acetyl-5-(pyrimidin-5-ylamino)-1H-indol-1-yl)acetyl)-4-fluoro-N-((R)-1-(5-fluoro-3-methyl-benzofuran-2-yl)ethyl) pyrrolidine-2-carboxamide], the figure is above 10 µM; as for `CC(=O)c1cn(CC(=O)N2C[C@H](F)C[C@H]2C(=O)NC2CCCN(c3cnn(C)c3)C2)c2ccc(Nc3cncnc3)cc12` (stereo partly drawn) [Compound 42, (2S,4R)-1-(2-(3-acetyl-5-(pyrimidin-5-ylamino)-1H-indol-1-yl)acetyl)-4-fluoro-N-(1-(1-methyl-1H-pyrazol-4-yl)piperidin-3-yl)pyrrolidine-2-carboxamide], below 1 µM; as for `CC(=O)c1cn(CC(=O)N2C[C@H](F)C[C@H]2C(=O)NCc2cccc(Cl)c2)c2ccc(Nc3cncnc3)cc12` [Compound 19, (2S,4R)-1-(2-(3-acetyl-5-(pyrimidin-5-ylamino)-1H-indol-1-yl)acetyl)-N-(3-chlorobenzyl)-4-fluoropyrrolidine-2-carboxamide], below 1 µM.
`CC(=O)c1cn(CC(=O)N2C[C@H](F)C[C@H]2C(=O)Nc2noc3cc(C(F)(F)F)ccc23)c2ccc(Nc3cncnc3)cc12` [Compound 52, (2S,4R)-1-(2-(3-acetyl-5-(pyrimidin-5-ylamino)-1H-indol-1-yl)acetyl)-4-fluoro-N-(6-(trifluoromethyl)benzo[d]isoxazol-3-yl)pyrrolidine-2-carboxamide]: the IC50 is 1 to 10 µM.
With `CC(=O)c1cn(CC(=O)N2C[C@H](F)C[C@H]2C(=O)Nc2nc(-c3cccc(Cl)c3)ns2)c2ccc(Nc3cncnc3)cc12` [Compound 60, (2S,4R)-1-(2-(3-acetyl-5-(pyrimidin-5-ylamino)-1H-indol-1-yl)acetyl)-N-(3-(3-chlorophenyl)-1,2,4-thiadiazol-5-yl)-4-fluoropyrrolidine-2-carboxamide], the half-maximal inhibitory concentration (IC50) is above 10 µM.
Regarding `CC(=O)c1cn(CC(=O)N2C[C@H](F)C[C@H]2C(=O)Nc2nccc(Cl)n2)c2ccc(Nc3cncnc3)cc12` [Compound 73, (2S,4R)-1-(2-(3-acetyl-5-(pyrimidin-5-ylamino)-1H-indol-1-yl)acetyl)-N-(4-chloropyrimidin-2-yl)-4-fluoropyrrolidine-2-carboxamide], the IC50 was below 1 µM.
For the compound `CC(=O)c1cn(CC(=O)N2C[C@H](F)C[C@H]2C(=O)NC2CCCN(c3cc(C)ccc3F)C2=O)c2ccc(Nc3cncnc3)cc12` (stereo partly drawn) [Compound 63, (2S,4R)-1-(2-(3-acetyl-5-(pyrimidin-5-ylamino)-1H-indol-1-yl)acetyl)-4-fluoro-N-(1-(2-fluoro-5-methylphenyl)-2-oxopiperidin-3-yl)pyrrolidine-2-carboxamide], the IC50 is below 1 µM.
Turning to `CC(=O)c1cn(CC(=O)N2C[C@H](F)C[C@H]2C(=O)Nc2ccc3cn[nH]c3c2)c2ccc(Nc3cncnc3)cc12` [Compound 25, (2S,4R)-1-(2-(3-acetyl-5-(pyrimidin-5-ylamino)-1H-indol-1-yl)acetyl)-4-fluoro-N-(1H-indazol-6-yl)pyrrolidine-2-carboxamide], the IC50 was below 1 µM.
On the same count and under the same terms, for `CC(=O)c1cn(C(=O)CN2C[C@H](F)C[C@H]2C(=O)Nc2nnc(-c3ccc(Cl)c(Cl)c3)s2)c2ccc(Nc3cncnc3)cc12` [Compound 39, (2S,4R)-1-(2-(3-acetyl-5-(pyrimidin-5-ylamino)-1H-indol-1-yl)-2-oxoethyl)-N-(5-(3,4-dichlorophenyl)-1,3,4-thiadiazol-2-yl)-4-fluoropyrrolidine-2-carboxamide] the value was above 10 µM.
Consider `CC(=O)c1cn(CC(=O)N2C[C@H](F)C[C@H]2C(=O)Nc2ccc(O)cn2)c2ccc(Nc3cncnc3)cc12` [Compound 70, (2S,4R)-1-(2-(3-acetyl-5-(pyrimidin-5-ylamino)-1H-indol-1-yl)acetyl)-4-fluoro-N-(5-hydroxypyridin-2-yl)pyrrolidine-2-carboxamide], for which the IC50 was 1 to 10 µM.

The experiment is the same for the next values; noted with them: Table 3; Factor D purified from human serum, 80 nM, substrate Z-L-Lys-SBzl; read-out: IC50 (Stars).
Take `CC(=O)c1cn(CC(=O)N2C[C@H](F)C[C@H]2C(=O)NCc2ccccc2)c2ccc(Nc3cccnc3)cc12` [Compound 146, (2S,4R)-1-(2-(3-acetyl-5-(pyridin-3-ylamino)-1H-indol-1-yl)acetyl)-N-benzyl-4-fluoropyrrolidine-2-carboxamide]: the IC50 is below 1 µM.
Turning to `CC(=O)c1cn(CC(=O)N2CC[C@H]2C(=O)Nc2cccc(C)n2)c2ccc(Nc3cncnc3)cc12` [Compound 160, (S)-1-(2-(3-acetyl-5-(pyrimidin-5-ylamino)-1H-indol-1-yl)acetyl)-N-(6-methylpyridin-2-yl)azetidine-2-carboxamide], the IC50 is above 10 µM.
In the case of `CC(=O)c1cn(CC(=O)N2C[C@H](F)C[C@H]2C(=O)NCc2ccccc2)c2ccc(Nc3cncnc3)cc12` [Compound 153, (2S,4R)-1-(2-(3-acetyl-5-(pyrimidin-5-ylamino)-1H-indol-1-yl)acetyl)-N-benzyl-4-fluoropyrrolidine-2-carboxamide], the IC50 is below 1 µM.
On the same count and under the same terms, as for `CC(=O)c1cn(CC(=O)N2C[C@H](F)C[C@H]2C(=O)NCCc2ccccc2)c2ccc(Nc3cccnc3)cc12` [Compound 148, (2S,4R)-1-(2-(3-acetyl-5-(pyridin-3-ylamino)-1H-indol-1-yl)acetyl)-4-fluoro-N-phenethylpyrrolidin-2-carboxamide], the figure is below 1 µM.
